This note sets out measurements from patent US10189819B2, “Factor IXa inhibitors” (MERCK SHARP & DOHME CORP., priority 2014, dated 2019).

The structures appear in SMILES notation. Where two headings read alike, the source gives them in different places.

The assay concerns the target Factor IXa (Homo sapiens (Human), UniProt P00740). In words: Determination of inhibitory activity against Factor IXa (cleavage of fluorescent peptide CH3SO2-D-CHG-Gly-Arg-AFC). The format is biochemical. How it is done:
Determination of Inhibitory Activity Against Factor IXa
Formation of a clot to stem bleeding at a site of blood vessel injury involves the coordinated activity of a group of plasma proteins that initiate and propagate fibrin formation and subsequently protect fibrin from premature degradation. Factor IX is a key component of the plasma system that forms a fibrin clot at a site of vascular injury. The activity of Factor IXa is measured by monitoring the cleavage of the fluorescent peptide, CH3SO2-D-CHG-Gly-Arg-AFC.AcOH (“CHG” is cyclohexyl-glycine and “AFC” is trifluoro aminomethyl coumarin). Factor IXa cleaves the amide bond between Arg and AFC, thereby releasing the AFC fluorophore. The free AFC can be detected with a fluorescence detector at an excitation wavelength of 405 nm and emission wavelength of 510 nm.

Factor IXa, sequence (P00740 227-461): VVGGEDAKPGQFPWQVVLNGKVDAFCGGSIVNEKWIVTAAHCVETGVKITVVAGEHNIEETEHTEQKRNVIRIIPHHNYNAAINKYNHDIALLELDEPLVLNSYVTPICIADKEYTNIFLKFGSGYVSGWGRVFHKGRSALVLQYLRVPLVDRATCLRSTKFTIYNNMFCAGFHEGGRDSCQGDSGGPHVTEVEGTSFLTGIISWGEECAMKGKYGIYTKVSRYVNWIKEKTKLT
Factor IXa, sequence (P00740 47-191 partner): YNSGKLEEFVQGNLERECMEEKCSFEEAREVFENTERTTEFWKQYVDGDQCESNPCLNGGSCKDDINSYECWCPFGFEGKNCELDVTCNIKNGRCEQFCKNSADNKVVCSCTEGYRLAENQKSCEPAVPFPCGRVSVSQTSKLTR

Turning to `Cc1ncn(-c2cc(Cl)c(C(=O)NC[C@@H](c3cccc(F)c3)c3nc4c(F)ccc(Cl)c4c(=O)[nH]3)c(Cl)c2)n1` [Example 94, (R)-2,6-dichloro-N-(2-(5-chloro-8-fluoro-4-oxo-3,4-dihydroquinazolin-2-yl)-2-(3-fluorophenyl)ethyl)-4-(3-methyl-1H-1,2,4-triazol-1-yl)benzamide], the IC50 – broadly, the concentration needed to halve the response being measured – (read-out: FIXa IC50) stood at 3.5 nM.

With `O=C(NCC(c1ccccc1)c1nc2cc(Cl)ccc2c(=O)[nH]1)c1ccc(-n2cnnc2)cc1Cl` (stereo not drawn) [Example 95], for the setting “read-out: hFIXa IC50”, the IC50 was determined as 803 nM.

Regarding `O=C(NC[C@@H](c1ccccc1)c1nc2ccc(Cl)cc2c(=O)[nH]1)c1ccc(-n2cnnc2)cc1Cl` [Example 96], the IC50 (read-out: hFIXa IC50) is 188 nM.

Consider `O=C(NC[C@@H](c1ccccc1)c1nc2cccc(Cl)c2c(=O)[nH]1)c1ccc(-n2cnnc2)cc1Cl` [Example 97], for which, where the note is “read-out: hFIXa IC50”, the IC50 amounted to 51.5 nM.

Regarding `O=C(NC[C@@H](c1ccccc1)c1nc2c(Cl)cccc2c(=O)[nH]1)c1ccc(-n2cnnc2)cc1Cl` [Example 98], where the note is “read-out: hFIXa IC50”, the IC50 was determined as 178 nM.

Consider `O=C(NC[C@@H](c1ccccc1)c1nc2c(Cl)ccc(Cl)c2c(=O)[nH]1)c1ccc(-n2cnnc2)cc1Cl` [Example 99], for which the IC50 (read-out: hFIXa IC50) was found to be 43.1 nM.

For `Cc1cccc2nc([C@@H](CNC(=O)c3ccc(-n4cnnc4)cc3Cl)c3ccccc3)[nH]c(=O)c12` [Example 100], the IC50 (read-out: hFIXa IC50) turned out to be 16.8 nM.

`Cc1ccc(F)c2nc(C(CNC(=O)c3ccc(-n4cnnc4)cc3Cl)c3ccccc3)[nH]c(=O)c12` (stereo not drawn) [Example 101]: the IC50 (read-out: hFIXa IC50) amounted to 6.68 nM.

`Cc1ncn(-c2ccc(C(=O)NC[C@@H](c3ccccc3)c3nc4c(F)ccc(C)c4c(=O)[nH]3)c(Cl)c2)n1` [Example 102]: the IC50 (read-out: hFIXa IC50) worked out at 10.7 nM.

As for `Cc1ncn(-c2ccc(C(=O)NC[C@@H](c3cccc(F)c3)c3nc4c(F)ccc(C)c4c(=O)[nH]3)c(Cl)c2)n1` [Example 103], where the note is “read-out: hFIXa IC50”, the half-inhibitory concentration (IC50) stood at 6.35 nM.

Regarding `O=C(O)c1ccc2ncn(-c3ccc(C(=O)NCC(c4cccc(F)c4)c4nc5c(F)ccc(Cl)c5c(=O)[nH]4)c(Cl)c3)c2c1` (stereo not drawn) [Example 104], the IC50 (read-out: hFIXa IC50) came to 1.97 nM.

Turning to `O=C(O)c1ccc2c(c1)ncn2-c1ccc(C(=O)NCC(c2cccc(F)c2)c2nc3c(F)ccc(Cl)c3c(=O)[nH]2)c(Cl)c1` (stereo not drawn) [Example 105], the IC50 (read-out: hFIXa IC50) was found to be 3.32 nM.

Regarding `Cc1ccc(F)c2nc([C@@H](CNC(=O)c3ccc(-c4ccnnc4)cc3Cl)c3cccc(F)c3)[nH]c(=O)c12` [Example 106], the IC50 (read-out: hFIXa IC50) turned out to be 8.5 nM.

With `Cc1ccc(F)c2nc([C@@H](CNC(=O)c3ccc(-n4cnc(CCO)c4)cc3Cl)c3cccc(F)c3)[nH]c(=O)c12` [Example 107], the concentration for half-maximal inhibition (IC50) (read-out: hFIXa IC50) turned out to be 7.3 nM.

For `Cc1ccc(F)c2nc([C@@H](CNC(=O)c3ccc(-c4ccc(=O)n(C)c4)cc3Cl)c3cccc(F)c3)[nH]c(=O)c12` [Example 108], under “read-out: hFIXa IC50”, the IC50 was determined as 9.2 nM.

For `Cc1ccc(F)c2nc([C@@H](CNC(=O)c3ccc(-n4cnn(C)c4=O)cc3Cl)c3cccc(F)c3)[nH]c(=O)c12` [Example 109], the IC50 (read-out: hFIXa IC50) was 1.8 nM.

Consider `Cc1ncn(-c2cc(Cl)c(C(=O)NC[C@@H](c3cccnc3)c3nc4c(F)ccc(C)c4c(=O)n3C)c(Cl)c2)n1` [Example 110], for which the IC50 (read-out: hFIXa IC50) came out at 8.9 nM.

For the molecule `Cc1ccc(F)c2nc([C@@H](CNC(=O)c3ccc(-n4cnnc4C(F)F)cc3Cl)c3cccc(F)c3)[nH]c(=O)c12` [Example 111], the IC50 (read-out: hFIXa IC50) was 9.6 nM.

As for `Cc1ncn(-c2cc(Cl)c(C(=O)NC[C@@H](c3cccc(F)c3)c3ccc4c(C)ccc(F)c4n3)c(Cl)c2)n1` [Example 113], the IC50 (read-out: hFIXa IC50) was 10.4 nM.

Regarding `COc1cc([C@@H](CNC(=O)c2c(Cl)cc(-n3cnc(C)n3)cc2Cl)c2cccc(F)c2)nc2c(F)ccc(C)c12` [Example 114], the IC50 (read-out: hFIXa IC50) is 52.2 nM.

For `Cc1ncn(-c2cc(Cl)c(C(=O)NCC(c3cccc(F)c3)c3nc4cc(C)c(C)cc4[nH]c3=O)c(Cl)c2)n1` (stereo not drawn) [Example 116], the IC50 (read-out: hFIXa IC50) was 51.1 nM.
